System: ConA-stimulated mouse spleen cells
Test: ConA-stimulated mouse spleen cell proliferation (CFSE, flow cytometry)
Assay type: cell-based
Conditions: final concentration 10 nM, 72 hours, read-out: inhibition rate on the proliferation of spleen cells
Method: A method for preparing a suspension of mouse spleen cells added with a stimulator was: 1-week-old C57BL/6 mice were sacrificed by neck dislocation, then the spleen was taken, ground with a 200-mesh sieve, and then rinsed with a lymphatic separation fluid, and the separation solution containing lymphocytes was collected, resuspended by using a RPMI-1640 complete medium containing 10% fetal bovine serum and centrifuged under a centrifugal force of 800 g at low temperature for 30 minutes; and after completion of centrifugation, the lymphocyte layer was pipetted, then resuspended with a RPMI-1640 complete medium containing 10% fetal bovine serum, and then centrifuged under a centrifugal force of 250 g for 10 minutes at low temperature. The obtained lymphocyte layer was resuspended with the RPMI-1640 complete medium containing 10% fetal bovine serum again, and added with a concanavalin A(ConA) suspension resuspended with the RPMI-1640 complete medium containing 10% fetal bovine serum as a stimulator. […]

C=CC[C@@H]1/C=C(\C)C[C@H](C)C[C@H](OC)[C@H]2O[C@@](O)(C(=O)C(=O)N3CCCC[C@H]3C(=O)O[C@H](/C(C)=C/[C@@H]3CC[C@@H](O)[C@H](OC)C3)[C@H](C)[C@@H](O)CC1=O)[C@H](C)C[C@@H]2OC [FK506, tacrolimus]
inhibition at 0.01 µM: 82%
